In US20230013363A1, “COMPOSITION FOR ENHANCING REPROGRAMMING EFFICIENCY FROM SOMATIC CELL TO INDUCED PLURIPOTENT STEM CELL, COMPRISING MTOR ACTIVATOR, AND METHOD FOR ENHANCING REPROGRAMMING EFFICIENCY BY USING SAME” (KOREA UNIVERSITY RESEARCH AND BUSINESS FOUNDATION, priority 2019, published 2023):

What was measured:
[1] = system: human placenta derived cells (HPC); experiment: Reprogramming efficiency of OSKM-transduced somatic cells to iPSCs (HPC); assay type: cell-based
Source text: (§1) In order to examine whether 4,6-di-4-morpholinyl-N-(4-nitrophenyl)-1,3,5-triazin-2-amine (MHY1485, CAS Number 326914-06-1), which is an mTOR (mammalian target of rapamycin) activator, has an influence on reprogramming efficiency, reprogramming factors (OCT4, SOX2, c-Myc, KLF4; OSKM) were transduced into primary umbilical vein endothelial cells (HUVEC, ATCC #PCS-100-010), primary human dermal fibroblasts (HDF, ATCC # PCS-201-012), and human placenta derived cells (HPC) via the Sendai virus (SeV) system as shown in FIG. 1a.
(§2) Twenty-four hours after transduction, the cells were cultured for one week in a placenta-derived cell conditioned medium (PCCM) or growth medium (GM). MHY1485 was added at a dose of 2 μg/mL once per 24 hours for three weeks. After one week of the culturing in a placenta-derived cell conditioned medium (PCCM) or growth medium (GM), the cells were induced to undergo reprogramming for two weeks in Matrigel-coated culture dishes containing mTeSR medium together with MHY1485 under a general pluripotent stem cell culturing condition.

[2] = system: primary human dermal fibroblasts (HDF); experiment: Reprogramming efficiency of OSKM-transduced somatic cells to iPSCs (HDF); assay type: cell-based
Source text: as §1, §2

[3] = system: primary umbilical vein endothelial cells (HUVEC); experiment: Reprogramming efficiency of OSKM-transduced somatic cells to iPSCs (HUVEC); assay type: cell-based, human
Source text: as §1, §2

[4] = system: HUVEC, HDF, and HPC cells; experiment: Reprogramming efficiency, HUVEC, HDF and HPC taken together (total of 9 dishes); assay type: cell-based, human
Source text: as §1, §2
HUVEC, HDF, and HPC cells were induced to undergo reprogramming by treatment with MHY1485 or in PCCM in three dishes for each cell line.

[5] = system: CXCR2, mTOR, cMYC, LC3a/b, p62 in HUVEC, HDF, and HPC cells; experiment: Western blot of protein expression in somatic cells with or without MHY1485; assay type: cell-based, human
Source text: as §1, §2
Western blotting identified the expression of CXCR2, mTOR, and cMYC. Autophagic flux activity was identified […].

[6] = system: LC3a/b in HUVEC, HDF, and HPC cells; experiment: Immunofluorescence assay of LC3a/b (autophagy) in somatic cells; assay type: cell-based, human; details: rapamycin as control
[7] = GM + MHY1485 (2 μg/mL once per 24 hours for three weeks)
[8] = treatment with MHY1485 vs no treatment

With `O=[N+]([O-])c1ccc(Nc2nc(N3CCOCC3)nc(N3CCOCC3)n2)cc1` [MHY1485, 4,6-di-4-morpholinyl-N-(4-nitrophenyl)-1,3,5-triazin-2-amine] the “Reprogramming efficiency (%)” value [1, 7] was 0.35%, the “Reprogramming efficiency (%)” value ([1]; hPCCM + MHY1485 (2 μg/mL)) was 0.92% and the “Reprogramming efficiency (%)” value [2, 7] was 0.04%. The “Reprogramming efficiency (%)” value ([2]; hPCCM + MHY1485 (2 μg/mL)) was 0.07%, the “Reprogramming efficiency (%)” value [3, 7] was 0.13% and the “Reprogramming efficiency (%)” value ([3]; hPCCM + MHY1485 (2 μg/mL)) was 0.39%. For the same molecule, the “Reprogramming efficiency (%)” value ([4]; GM + MHY1485, HUVEC, HDF, HPC, three dishes each, total of 9 dishes) was 0.17%, the “effect of increasing reprogramming efficiency, compared to the employment of PCCM medium” value ([4]; MHY1485 treatment vs PCCM medium, FIG. 4 and Table 2) was “significantly higher” and the “reprogramming efficiency compared to untreated cells” value ([4]; all the cells (HUVEC, HDF, HPC), FIGS. 2a to 2c) was “increased”. For the same molecule, the “expression level of p62 (indicates inactivation of autophagic flux)” value ([5]; treatment with MHY1485) was “increased”, the “expression of CXCR2” value [5, 8] was “increased” and the “expression of LC3a/b” value [5, 8] was “decreased”. For the same molecule, the “expression of cMYC” value [5, 8] was “increased”, the “expression of mTOR” value [5, 8] was “increased” and the “expression of LC3a/b (inhibition of autophagy)” value [6] was “decreased”.
